This passage reports MIC, MCC and IC50 results from ChEMBL document CHEMBL1125587, “Synthesis and antiviral and cytostatic properties of 3'-deoxy-3'-fluoro- and 2'-azido-3'-fluoro-2',3'-dideoxy-D-ribofuranosides of natural heterocyclic bases” (J Med Chem, 1991).

Converted amounts (≈) assume the structure as drawn.

For assay [1], the system named is HeLa. As to the kind of experiment: Concentration (MIC), which is required to reduce virus-induced cytopathogenicity in HeLa cells against Polio virus type-1. The class given is functional. As to conditions: Homo sapiens. Background: Damage to the host cells serves as the signal in cytopathic effect assays.
Assay [2] deals with Vero. The assay can be described thus: Concentration (MIC), which is required to reduce virus-induced cytopathogenicity in African green monkey kidney (Vero B) cells against Coxsackie virus-B4. The class given is functional, Chlorocebus sabaeus.
Assay [3] relates to Vero. The assay can be described thus: Concentration (MIC), which is required to reduce virus-induced cytopathogenicity in HeLa cells of African green monkey kidney (Vero B) cells against RNA viruses including para-influenza virus-3. The class given is functional. As to conditions: Chlorocebus sabaeus.
Assay [4] deals with Vero. As to the kind of experiment: Concentration (MIC), which is required to reduce virus-induced cytopathogenicity in African green monkey kidney (Vero B) cells against Reo-virus-1. The class given is functional. The conditions noted are these: Chlorocebus sabaeus.
Assay [5] deals with Vero. The assay can be described thus: Concentration (MCC) required to cause a microscopically detectable alteration of normal cell morphology, African green monkey kidney (Vero B) cells. The class given is functional. The conditions noted are these: Chlorocebus sabaeus.
Assay [6] is described as follows: Concentration (MIC)required to reduce virus-induced cytopathogenicity in Primary rabbit kidney (PRK ) cells against HSV-1 with a strain KOS. The class given is functional. As to conditions: Oryctolagus cuniculus.
Assay [7] relates to HeLa. The assay can be described thus: Concentration (MCC) required to cause a microscopically detectable alteration of normal cell morphology, in HeLa cells. The class given is functional. As to conditions: Homo sapiens.
Assay [8] can be described thus: Concentration (MCC) required to cause a microscopically detectable alteration of normal cell morphology, in Primary rabbit kidney (PRK) cells. The class given is functional, Oryctolagus cuniculus.
Assay [9] is described as follows: Concentration (MIC), which is required to reduce virus-induced cytopathogenicity in Primary rabbit kidney (PRK ) cells against Vaccinia virus. The class given is functional. The conditions noted are these: Oryctolagus cuniculus.
Assay [10] can be described thus: Concentration (MIC)required to reduce virus-induced cytopathogenicity in Primary rabbit kidney (PRK ) cells against HSV-2 with strain G. The class given is functional. The conditions noted are these: Oryctolagus cuniculus.
The test system of assay [11] is Vero. As to the kind of experiment: Concentration (MIC), which is required to reduce virus-induced cytopathogenicity in African green monkey kidney (Vero B) cells against forest virus. The conditions noted are these: Chlorocebus sabaeus. The class given is functional.
Assay [12] concerns Vero. The assay can be described thus: Concentration (MIC), which is required to reduce virus-induced cytopathogenicity in African green monkey kidney (Vero B) cells against Sindbis virus. As to conditions: Chlorocebus sabaeus. The class given is functional.
Assay [13] in a line: Concentration (MIC), required to reduce virus-induced cytopathogenicity in Primary rabbit kidney (PRK ) cells against Vesicular stomatitis virus type 1. The class given is functional. As to conditions: Oryctolagus cuniculus.
Assay [14] in a line: Concentration (MIC), required to reduce virus-induced cytopathogenicity in Primary rabbit kidney (PRK ) cells against Vesicular stomatitis virus type 2. The class given is functional. The conditions noted are these: Oryctolagus cuniculus.
A short description of assay [15]: Concentration (MIC)required to reduce virus-induced cytopathogenicity in Primary rabbit kidney (PRK ) cells against HSV-2 with a strain G. The class given is functional. The conditions noted are these: Oryctolagus cuniculus.
Assay [16] concerns Vero. As to the kind of experiment: Concentration (MIC), which is required to reduce virus-induced cytopathogenicity in African green monkey kidney (Vero B) cells against para-influenza virus-3. The class given is functional. As to conditions: Chlorocebus sabaeus.
In assay [17] the test system is HeLa. As to the kind of experiment: Concentration (MIC), which is required to reduce virus-induced cytopathogenicity in HeLa cells o against Polio virus type-1. The class given is functional. The conditions noted are these: Homo sapiens.
The next assay deals with MT4. The assay can be described thus: Concentration required to reduce the viability of Human T-lymphoblast MT-4 cells. The class given is functional, cell-based.
A further assay has as its system L1210. The assay can be described thus: Concentration required to reduce the viability of Murine leukemia L1210 cells. The class given is functional, cell-based. The conditions noted are these: Mus musculus.
Assay [18] can be described thus: Concentration (MIC), required to reduce virus-induced cytopathogenicity in HeLa cells of Primary rabbit kidney (PRK ) cells against Vesicular stomatitis virus type 2. As to conditions: Oryctolagus cuniculus. The class given is functional.
In the next assay the test system is Raji. The assay can be described thus: Concentration required to reduce the viability of Human B-lymphoblast Raji cells. The class given is functional, cell-based.
Another assay deals with MOLT-4F. As to the kind of experiment: Concentration required to reduce the viability of Human T-lymphoblast Molt/4F cells. The class given is functional, cell-based.
Assay [19] is described as follows: Concentration (MIC), which is required to reduce virus-induced cytopathogenicity in HeLa cells of Primary rabbit kidney (PRK ) cells against DNA viruses including Vaccinia virus. The class given is functional. The conditions noted are these: Oryctolagus cuniculus.
The subject of assay [20] is Vero. As to the kind of experiment: Concentration (MIC), which is required to reduce virus-induced cytopathogenicity in African green monkey kidney (Vero B) cells against RNA viruses including Coxsackie virus-B4. The class given is functional. As to conditions: Chlorocebus sabaeus.
The test system of assay [21] is HeLa. The assay can be described thus: Concentration (MIC), which is required to reduce virus-induced cytopathogenicity in Primary rabbit kidney (PRK ) cells against Polio virus type-1. The class given is functional. As to conditions: Homo sapiens.
Assay [22] can be described thus: Concentration (MIC), required to reduce virus-induced cytopathogenicity in HeLa cells of Primary rabbit kidney (PRK ) cells against Vesicular stomatitis virus type 1. The class given is functional. As to conditions: Oryctolagus cuniculus.
The nature of assay [23]: Concentration (MIC)required to reduce virus-induced cytopathogenicity in Primary rabbit kidney (PRK ) cells against including HSV-2 with a strain G. The class given is functional. The conditions noted are these: Oryctolagus cuniculus.
The mark [24] stands for this setting: Chlorocebus sabaeus, read-out: MIC.

Turning to `Cc1cn([C@H]2O[C@H](CO)[C@@H](F)[C@H]2N=[N+]=[N-])c(=O)[nH]c1=O`, the MIC (against HeLa [1]; in the assay on Vero [2] (setting [24]); in the assay with Vero [3]; with Vero [4]; in [6]; in [9]) was above 400 µg/mL throughout. Moreover, the MIC in [10] was above 400 µg/mL; with Vero [11] it was above 400 µg/mL; against Vero [12] it was above 400 µg/mL; in assay [13] it was below 400 µg/mL; in assay [14], above 400 µg/mL. Also, the MCC (in the assay with Vero [5]; with HeLa [7]; in [8]) was above 400 µg/mL each time.
Take `Cc1cn([C@@H]2O[C@H](CO)[C@@H](F)[C@H]2N=[N+]=[N-])c(=O)[nH]c1=O`: the MIC (against HeLa [1]; in the assay with Vero [2] (setting [24]); against Vero [4]; in assay [6]; in assay [15]; in assay [9]) was above 400 µg/mL throughout. Besides, the MIC (with Vero [11]; in the assay on Vero [12]; in the assay with Vero [16]; in assay [13]; in assay [14]) was above 400 µg/mL throughout. Further, the MCC (in the assay on Vero [5]; with HeLa [7]; in [8]) was above 400 µg/mL each time.
As usually defined, the IC50 is the concentration that gives 50% inhibition. With `Nc1ccn([C@@H]2O[C@H](CO)[C@H](F)[C@H]2O)c(=O)n1`, the MIC was 150 µg/mL (≈ 612 µM) in the assay with HeLa [17]; 300 µg/mL (≈ 1220 µM) against Vero [2]; 150 µg/mL (≈ 612 µM) with Vero [2] (setting [24]); 150 µg/mL (≈ 612 µM) with Vero [4]; above 400 µg/mL in assay [6]; above 400 µg/mL in [15]. In addition, the MIC in [9] is above 400 µg/mL; in assay [18] it was 300 µg/mL (≈ 1220 µM); in the assay with Vero [11], above 400 µg/mL; against Vero [12] it was 300 µg/mL (≈ 1220 µM); in the assay with Vero [16], above 400 µg/mL; in assay [13] it was above 400 µg/mL. Also, the IC50 in the assay on MT4 worked out at 7.9 µg/mL (≈ 32.2 µM); with L1210, 39 µg/mL (≈ 159 µM); with Raji, 98 µg/mL (≈ 400 µM); in the assay with MOLT-4F, 65 µg/mL (≈ 265 µM). For the same compound, the MCC (with Vero [5]; with HeLa [7]; in assay [8]) was above 400 µg/mL in each case.
As for `O=c1ccn([C@@H]2O[C@H](CO)[C@@H](F)[C@H]2O)c(=O)[nH]1`, the IC50 is 6.9 µg/mL (≈ 28 µM) in the assay on MT4, above 100 µg/mL in the assay with L1210, above 100 µg/mL in the assay on Raji and above 100 µg/mL in the assay on MOLT-4F. In addition, the MIC is 150 µg/mL (≈ 609 µM) in the assay with HeLa [1]; 300 µg/mL (≈ 1220 µM) with Vero [2] (setting [24]); above 400 µg/mL in assay [19]; 150 µg/mL (≈ 609 µM) against Vero [4]; above 400 µg/mL in assay [6]; above 400 µg/mL in assay [15]. Moreover, the MIC against Vero [20] is 300 µg/mL (≈ 1220 µM); in the assay with Vero [11], above 400 µg/mL; against Vero [12], 300 µg/mL (≈ 1220 µM); with Vero [16] it was above 400 µg/mL; in assay [13] it was above 400 µg/mL; in assay [14] it was above 400 µg/mL. Also, the MCC (with Vero [5]; with HeLa [7]; in assay [8]) was above 400 µg/mL throughout.
For the compound `[N-]=[N+]=NC1C(F)C(CO)OC1n1ccc(N)nc1=O` (centres undefined), the MIC (with HeLa [1]; in the assay on Vero [2] (setting [24]); against Vero [4]; in [6]; in [15]; in [9]) was above 400 µg/mL throughout. Further, the MIC with Vero [11] was above 400 µg/mL; in the assay with Vero [12] it was above 400 µg/mL; with Vero [16], above 400 µg/mL; in [13], above 300 µg/mL; in [14], above 400 µg/mL. The MCC (in the assay with Vero [5]; with HeLa [7]; in assay [8]) was above 400 µg/mL each time.
With `Nc1nc(O)c2ncn([C@@H]3O[C@H](CO)[C@@H](F)[C@H]3O)c2n1`, the IC50 in the assay with MT4 was above 100 µg/mL; in the assay on L1210 it was 5 µg/mL (≈ 17.5 µM); with Raji, 29 µg/mL (≈ 102 µM); with MOLT-4F, 75 µg/mL (≈ 263 µM). The MIC is above 200 µg/mL in the assay on Vero [4]; above 100 µg/mL in [6]; above 100 µg/mL in assay [15]; 10 µg/mL (≈ 35.1 µM) in assay [9]; 150 µg/mL (≈ 526 µM) in the assay with HeLa [21]; 40 µg/mL (≈ 140 µM) in the assay on Vero [11]. Also, the MIC with Vero [12] was 40 µg/mL (≈ 140 µM); with Vero [16], above 100 µg/mL; in assay [13], above 200 µg/mL; in assay [14] it was above 200 µg/mL. For the same compound, the results for the MCC (in the assay with Vero [5]; with HeLa [7]; in [8]) were 400 µg/mL, above 400 µg/mL and 200 µg/mL, respectively.
For `[N-]=[N+]=NC1C(F)C(CO)OC1n1cnc2c(N)ncnc21` (centres undefined), the MIC in [22] was 300 µg/mL (≈ 1020 µM); in the assay with HeLa [1], above 200 µg/mL; in the assay on Vero [2] it was above 200 µg/mL; in the assay with Vero [2] (setting [24]), 300 µg/mL (≈ 1020 µM); in assay [23] it was above 200 µg/mL; with Vero [4], above 200 µg/mL. The MIC was above 400 µg/mL in assay [6]; 300 µg/mL (≈ 1020 µM) in assay [9]; above 200 µg/mL against Vero [11]; above 200 µg/mL with Vero [12]; above 200 µg/mL against Vero [16]; above 200 µg/mL in assay [14]. The MCC (in the assay on Vero [5]; in the assay on HeLa [7]; in [8]) was above 400 µg/mL throughout.
`Nc1ncnc2c1ncn2[C@@H]1O[C@H](CO)[C@@H](F)[C@H]1O`: the MIC in assay [22] was above 40 µg/mL; in the assay with HeLa [1], 4 µg/mL (≈ 14.9 µM); with Vero [4], 1 µg/mL (≈ 3.71 µM); in assay [6] it was above 10 µg/mL; in [15] it was above 10 µg/mL; in [9] it was 2 µg/mL (≈ 7.43 µM). Further, the MIC against Vero [11] was 4 µg/mL (≈ 14.9 µM); in the assay on Vero [12], 4 µg/mL (≈ 14.9 µM); in the assay on Vero [16], above 4 µg/mL; in assay [14], above 10 µg/mL. Besides, the IC50 in the assay on MT4 is 0.22 µg/mL (≈ 0.817 µM); with L1210, 1.6 µg/mL (≈ 5.94 µM); in the assay with Raji, 3.9 µg/mL (≈ 14.5 µM); in the assay with MOLT-4F it was 28 µg/mL (≈ 104 µM). The MCC was 40 µg/mL with Vero [5], 40 µg/mL with HeLa [7] and above 40 µg/mL in [8].
